Where two headings read alike, the source gives them in different places.
How the values were obtained:
Bmi-1 protein = assay: Sandwich ELISA Assay (Bmi-1 protein level in HT-1080 cells after compound treatment); assay type: cell-based
How it was run: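 Sandwich ELISA quantified Bmi-1 protein against recombinant standard (125–8000 pg/mL), with lysates captured overnight at 4 °C and signal by HRP/TMB at 450 nm (570 nm reference). Lysates came from HT-1080 cells incubated 40–48 h with test compounds in 0.5% DMSO.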

[1] = Table 1, Bmi-1 sandwich ELISA, read-out: ELISA EC50 value for Bmi-1 protein

Structure (SMILES)	melting point [°C]	EC50 (Bmi-1 protein; [1]) [nM]	EC50 (Bmi-1 protein; read-out: ELISA EC50 value for Bmi-1 protein, Table 1, Bmi-1 sandwich ELISA) [nM]
CS(=O)(=O)c1ccc(Nc2cncc(-c3c(C(F)(F)F)nc4ccccn34)n2)cc1 [compound 68, N-[4-(methylsulfonyl)phenyl]-6-[2-(trifluoromethyl)imidazo[1,2-a]pyridin-3-yl]pyrazin-2-amine]	256 to 258	–	100 to 3000
CCn1nc(C)c(-c2cncc(Nc3ccc(OC(F)(F)F)cc3)n2)c1C [compound 84, 6-(1-ethyl-3,5-dimethyl-1H-pyrazol-4-yl)-N-[4-(trifluoromethoxy)phenyl]pyrazin-2-amine]	142 to 143	1 to 10	–
FC(F)(F)Oc1ccc(Nc2cncc(-c3cccc4nc(C5CC5)cn34)n2)cc1 [compound 87, 6-(2-cyclopropylimidazo[1,2-a]pyridin-5-yl)-N-[4-(trifluoromethoxy)phenyl]pyrazin-2-amine]	225 to 227	100 to 3000	–
FC(F)(F)c1ccc(Nc2cncc(-c3cccc4nc(C5CC5)cn34)n2)cc1 [compound 89, 6-(2-cyclopropylimidazo[1,2-a]pyridin-5-yl)-N-[4-(trifluoromethyl)phenyl]pyrazin-2-amine]	266 to 268	100 to 3000	–
FC1(F)Oc2ccc(Nc3cncc(-c4c(C(F)(F)F)nc5ccccn45)n3)cc2O1 [compound 91, N-(2,2-difluoro-1,3-benzodioxol-5-yl)-6-[2-(trifluoromethyl)imidazo[1,2-a]pyridin-3-yl]pyrazin-2-amine]	232 to 234	100 to 3000	–
Cc1csc(Nc2cncc(-c3c(C(F)(F)F)nc4ccccn34)n2)n1 [compound 96, N-(4-methyl-1,3-thiazol-2-yl)-6-[2-(trifluoromethyl)imidazo[1,2-a]pyridin-3-yl]pyrazin-2-amine]	317 to 319	100 to 3000	–
Cc1nc2ccccc2n1-c1cc(N)cc(Nc2ccc(Cl)cc2)n1 [compound 633, N^2-(4-chlorophenyl)-6-(2-methyl-1H-benzimidazol-1-yl)pyridine-2,4-diamine]	–	10 to 100	–
CCc1nn2ccccc2c1-c1cncc(Nc2cccc(OC)c2)n1 [compound 640, 6-(2-ethylpyrazolo[1,5-a]pyridin-3-yl)-N-(3-methoxyphenyl)pyrazin-2-amine]	–	10 to 100	–
CCc1nn2ccccc2c1-c1cncc(Nc2ccc(C#N)cc2)n1 [compound 641, 4-{[6-(2-ethylpyrazolo[1,5-a]pyridin-3-yl)pyrazin-2-yl]amino}benzonitrile]	–	10 to 100	–
CCc1nn2ccccc2c1-c1cncc(Nc2ccc(C(=O)OC)cc2)n1 [compound 642, methyl 4-{[6-(2-ethylpyrazolo[1,5-a]pyridin-3-yl)pyrazin-2-yl]amino}benzoate]	–	10 to 100	–
CCc1nn2ccccc2c1-c1cncc(Nc2cccc(Cl)c2)n1 [compound 643, N-(3-chlorophenyl)-6-(2-ethylpyrazolo[1,5-a]pyridin-3-yl)pyrazin-2-amine]	–	100 to 3000	–
Cc1nc2ccccc2n1-c1cncc(Nc2ccc(C(F)(F)F)cc2F)n1 [compound 644, N-[2-fluoro-4-(trifluoromethyl)phenyl]-6-(2-methyl-1H-benzimidazol-1-yl)pyrazin-2-amine]	–	10 to 100	–
Cc1nc2ccccc2n1-c1cncc(Nc2cc(F)c(C(F)(F)F)c(F)c2)n1 [compound 645, N-[3,5-difluoro-4-(trifluoromethyl)phenyl]-6-(2-methyl-1H-benzimidazol-1-yl)pyrazin-2-amine]	–	10 to 100	–
Cc1nc2ccc(F)cn2c1-c1cc(C#N)cc(Nc2cccc(F)c2)n1 [compound 651, 2-(6-fluoro-2-methylimidazo[1,2-a]pyridin-3-yl)-6-[(3-fluorophenyl)amino}pyridine-4-carbonitrile]	–	100 to 3000	–
Cc1nc2cc(F)c(F)cc2n1-c1cc(N)cc(Nc2ccc(OC(F)(F)F)cc2)n1 [compound 652, 6-(5,6-difluoro-2-methyl-1H-benzimidazol-1-yl)-N^2-[4-(trifluoromethoxy)phenyl]pyridine-2,4-diamine]	–	10 to 100	–
Cc1nc2ccc(F)cc2n1-c1cncc(Nc2ccc(Cl)c(F)c2)n1 [compound 654, N-(4-chloro-3-fluorophenyl)-6-(6-fluoro-2-methyl-1H-benzimidazol-1-yl)pyrazin-2-amine]	–	10 to 100	–
COc1ccc(Nc2cc(C)cc(-n3c(C)nc4ccccc43)n2)cc1 [compound 655, N-(4-methoxyphenyl)-4-methyl-6-(2-methyl-1H-benzimidazol-1-yl)pyridin-2-amine]	–	100 to 3000	–

Second part, led by results:

melting point [°C]	EC50 (Bmi-1 protein; [1]) [nM]	Structure (SMILES)	EC50 (Bmi-1 protein; read-out: ELISA EC50 value for Bmi-1 protein, Table 1, Bmi-1 sandwich ELISA) [nM]
–	10 to 100	COc1ccc(Nc2cc(N)cc(-n3c(C)nc4cc(F)c(F)cc43)n2)cc1 [compound 656, 6-(5,6-difluoro-2-methyl-1H-benzimidazol-1-yl)-N^2-(4-methoxyphenyl)pyridine-2,4-diamine]	–
–	10 to 100	Cc1ccc(Nc2cc(N)cc(-n3c(C)nc4cc(F)c(F)cc43)n2)cc1 [compound 657, 6-(5,6-difluoro-2-methyl-1H-benzimidazol-1-yl)-N^2-(4-methylphenyl)pyridine-2,4-diamine]	–
–	10 to 100	Cc1nc2cc(F)c(F)cc2n1-c1cc(N)cc(Nc2ccc(Cl)cc2)n1 [compound 658, N^2-(4-chlorophenyl)-6-(5,6-difluoro-2-methyl-1H-benzimidazol-1-yl)pyridine-2,4-diamine]	–
–	100 to 3000	Cc1nc2ccccc2n1-c1cncc(Nc2ccc(C(C)(C)C)cc2)n1 [compound 659, N-(4-tert-butylphenyl)-6-(2-methyl-1H-benzimidazol-1-yl)pyrazin-2-amine]	–
–	10 to 100	Cc1nc2ccccc2n1-c1cncc(Nc2ccc(OC(C)C)cc2)n1 [compound 660, 6-(2-methyl-1H-benzimidazol-1-yl)-N-[4-(propan-2-yloxy)phenyl]pyrazin-2-amine]	–
–	10 to 100	Cc1nc2ccccc2n1-c1cncc(Nc2ccc(C(C)C)cc2)n1 [compound 661, 6-(2-methyl-1H-benzimidazol-1-yl)-N-[4-(propan-2-yl)phenyl]pyrazin-2-amine]	–
–	100 to 3000	CCc1ccc(Nc2cncc(-n3c(C)nc4ccccc43)n2)cc1 [compound 662, N-(4-ethylphenyl)-6-(2-methyl-1H-benzimidazol-1-yl)pyrazin-2-amine]	–
–	10 to 100	CCCc1ccc(Nc2cncc(-n3c(C)nc4ccccc43)n2)cc1 [compound 663, 6-(2-methyl-1H-benzimidazol-1-yl)-N-(4-propylphenyl)pyrazin-2-amine]	–
–	100 to 3000	CCOc1ccc(Nc2cncc(-n3c(C)nc4ccccc43)n2)cc1 [compound 664, N-(4-ethoxyphenyl)-6-(2-methyl-1H-benzimidazol-1-yl)pyrazin-2-amine]	–
–	100 to 3000	C#Cc1ccc(Nc2cncc(-n3c(C)nc4ccccc43)n2)cc1 [compound 665, N-(4-ethynylphenyl)-6-(2-methyl-1H-benzimidazol-1-yl)pyrazin-2-amine]	–
–	100 to 3000	C=Cc1ccc(Nc2cncc(-n3c(C)nc4ccccc43)n2)cc1 [compound 666, N-(4-ethenylphenyl)-6-(2-methyl-1H-benzimidazol-1-yl)pyrazin-2-amine]	–
–	100 to 3000	Fc1ccc2nc(C(F)(F)F)c(-c3cncc(Nc4ccccc4)n3)n2c1 [compound 667, 6-[6-fluoro-2-(trifluoromethyl)imidazo[1,2-a]pyridin-3-yl]-N-phenylpyrazin-2-amine]	–
–	100 to 3000	N#Cc1ccc(Nc2cncc(-c3c(C(F)(F)F)nc4ccc(F)cn34)n2)cc1 [compound 668, 4-({6-[6-fluoro-2-(trifluoromethyl)imidazo[1,2-a]pyridin-3-yl]pyrazin-2-yl}amino)benzonitrile]	–
–	100 to 3000	Fc1ccc(Nc2cncc(-c3c(C(F)(F)F)nc4ccc(F)cn34)n2)cc1 [compound 669, N-(4-fluorophenyl)-6-[6-fluoro-2-(trifluoromethyl)imidazo[1,2-a]pyridin-3-yl]pyrazin-2-amine]	–
–	100 to 3000	Fc1ccc2nc(C(F)(F)F)c(-c3cncc(Nc4ccc(Cl)cc4)n3)n2c1 [compound 670, N-(4-chlorophenyl)-6-[6-fluoro-2-(trifluoromethyl)imidazo[1,2-a]pyridin-3-yl]pyrazin-2-amine]	–
–	100 to 3000	Cc1ccc(Nc2cncc(-c3c(C(F)(F)F)nc4ccc(F)cn34)n2)cc1 [compound 671, 6-[6-fluoro-2-(trifluoromethyl)imidazo[1,2-a]pyridin-3-yl]-N-(4-methylphenyl)pyrazin-2-amine]	–
–	100 to 3000	COc1ccc2nc(C)c(-c3cc(C#N)cc(Nc4ccc(C)cc4)n3)n2c1 [compound 673, 2-(6-methoxy-2-methylimidazo[1,2-a]pyridin-3-yl)-6-[(4-methylphenyl)amino]pyridine-4-carbonitrile]	–
–	100 to 3000	COc1ccc2nc(C)c(-c3cc(C#N)cc(Nc4ccc(F)cc4)n3)n2c1 [compound 674, 2-[(4-fluorophenyl)amino]-6-(6-methoxy-2-methylimidazo[1,2-a]pyridin-3-yl)pyridine-4-carbonitrile]	–
–	10 to 100	COc1ccc2nc(C)c(-c3cc(C#N)cc(Nc4ccccc4)n3)n2c1 [compound 675, 2-(6-methoxy-2-methylimidazo[1,2-a]pyridin-3-yl)-6-(phenylamino)pyridine-4-carbonitrile]	–
–	10 to 100	COc1ccc2nc(C)c(-c3cc(C#N)cc(Nc4ccc(Cl)cc4)n3)n2c1 [compound 676, 2-[(4-chlorophenyl)amino]-6-(6-methoxy-2-methylimidazo[1,2-a]pyridin-3-yl)pyridine-4-carbonitrile]	–
–	100 to 3000	COc1ccc2nc(C)c(-c3cc(C#N)cc(Nc4ccc(OC(F)F)cc4)n3)n2c1 [compound 677, 2-{[4-(difluoromethoxy)phenyl]amino}-6-(6-methoxy-2-methylimidazo[1,2-a]pyridin-3-yl)pyridine-4-carbonitrile]	–
–	10 to 100	Cc1nc2cc(F)c(F)cc2n1-c1cncc(Nc2ccc(C(F)(F)F)cc2)n1 [compound 683, 6-(5,6-difluoro-2-methyl-1H-benzimidazol-1-yl)-N-[4-(trifluoromethyl)phenyl]pyrazin-2-amine]	–
